Legend:
[1] = Toxicity in BALB/c nude mouse xenografted with human NCI-N87 cells assessed as reduction in body weight at 5 to 40 mg/kg, po administered once daily for 21 days; assay type: organism-based; conditions: in vivo, 504 h, dose 5-40 mg/kg, time 21 day
BaF3 [2] = assay: Antitumor activity against mouse BaF3 cells harbouring HER2 A775_G776insYVMA mutant xenografted in BALB/c nude mouse assessed as tumor growth inhibition by measuring relative tumor growth at 40 mg/kg, po qd for 13 days by caliper method relative to control; assay type: functional; conditions: time 13 day
[3] = molecular target: Receptor tyrosine-protein kinase erbB-2 (Homo sapiens, UniProt P04626); assay: Inhibition of wild type human GST-tagged HER2 (676 to end residues) expressed in baculovirus infected Sf9 cells incubated for 30 mins in presence of ATP by HTRF analysis
Chain of Receptor tyrosine-protein kinase erbB-2 (Homo sapiens, UniProt P04626) (P04626 whole entry): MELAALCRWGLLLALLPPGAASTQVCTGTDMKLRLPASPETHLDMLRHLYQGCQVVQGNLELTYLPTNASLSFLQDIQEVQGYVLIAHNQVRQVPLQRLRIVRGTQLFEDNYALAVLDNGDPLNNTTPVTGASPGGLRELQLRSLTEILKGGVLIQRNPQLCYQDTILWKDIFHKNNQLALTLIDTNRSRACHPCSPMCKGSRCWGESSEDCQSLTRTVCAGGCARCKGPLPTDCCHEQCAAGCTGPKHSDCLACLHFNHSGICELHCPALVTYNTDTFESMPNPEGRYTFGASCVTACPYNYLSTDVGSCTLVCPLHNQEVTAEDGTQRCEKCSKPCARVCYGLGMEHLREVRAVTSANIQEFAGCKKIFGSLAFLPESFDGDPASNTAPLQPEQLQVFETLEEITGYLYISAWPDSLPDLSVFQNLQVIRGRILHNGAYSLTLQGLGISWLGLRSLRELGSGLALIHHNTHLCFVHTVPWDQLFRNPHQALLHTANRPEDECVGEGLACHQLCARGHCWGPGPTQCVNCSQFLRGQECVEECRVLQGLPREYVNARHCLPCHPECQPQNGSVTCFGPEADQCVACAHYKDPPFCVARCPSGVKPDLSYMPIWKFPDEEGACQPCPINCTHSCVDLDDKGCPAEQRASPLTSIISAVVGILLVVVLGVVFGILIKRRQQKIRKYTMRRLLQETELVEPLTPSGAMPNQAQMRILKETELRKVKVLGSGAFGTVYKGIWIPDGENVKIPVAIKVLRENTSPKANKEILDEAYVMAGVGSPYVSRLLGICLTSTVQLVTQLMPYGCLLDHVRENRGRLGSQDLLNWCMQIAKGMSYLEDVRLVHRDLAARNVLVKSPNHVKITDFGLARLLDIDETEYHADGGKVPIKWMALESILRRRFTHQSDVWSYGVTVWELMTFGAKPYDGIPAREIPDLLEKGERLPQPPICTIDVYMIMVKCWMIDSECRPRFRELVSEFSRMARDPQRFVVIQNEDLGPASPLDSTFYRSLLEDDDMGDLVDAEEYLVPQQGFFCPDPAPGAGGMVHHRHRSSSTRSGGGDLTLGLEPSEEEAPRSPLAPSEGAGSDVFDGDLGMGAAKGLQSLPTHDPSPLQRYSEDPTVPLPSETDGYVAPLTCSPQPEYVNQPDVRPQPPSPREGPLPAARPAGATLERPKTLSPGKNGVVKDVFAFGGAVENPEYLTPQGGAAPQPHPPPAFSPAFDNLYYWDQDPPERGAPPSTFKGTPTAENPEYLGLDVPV

[4] = Half life in ICR mouse at 10 mg/kg, po measured upto 1440 mins by LC/MS/MS analysis; assay type: ADME, organism-based; conditions: in vivo
BaF3 [5] = assay: Antiproliferative activity against mouse BaF3 cells harbouring HER2 […] mutant assessed as inhibition of cell growth incubated for 72 hrs by Celltiter-Glo assay; assay type: functional, cell-based; conditions: BaF3, 72 h
NCI-N87 [6] = assay: Antitumor activity against human NCI-N87 cells xenografted in BALB/c nude mouse assessed as tumor growth inhibition at 10 mg/kg/day, po administered once daily for 21 days relative to control; assay type: functional; conditions: NCI-N87, 504 h, time 21 day, read-out: TGI
[7] = Volume of distribution at steady state in Sprague-Dawley rat at 3 mg/kg, iv measured upto 1440 mins by LC/MS/MS analysis; assay type: ADME, organism-based; conditions: in vivo, read-out: Vdss
NCI-N87 [8] = assay: Antitumor activity against human NCI-N87 cells xenografted in BALB/c nude mouse assessed as tumor growth inhibition by measuring relative tumor growth at 20 mg/kg/day, po administered once daily for 21 days by caliper method relative to control; assay type: functional; conditions: time 21 day
BT-474 [9] = assay: Antitumor activity against human BT-474 cells xenografted in BALB/c nude mouse assessed as tumor growth inhibition at 20 mg/kg/day, po administered once daily for 21 days relative to control; assay type: functional; conditions: BT-474, 504 h, time 21 day, read-out: TGI
MDA-MB-468 = assay: Antiproliferative activity against human MDA-MB-468 cells overexpressing wild type EGFR assessed as cell growth inhibition incubated for 72 hrs by Celltiter-Glo assay; assay type: functional, cell-based; conditions: MDA-MB-468, 72 h
[10] = Tmax in cynomolgus monkey at 15 mg/kg, po measured upto 1440 mins by LC/MS/MS analysis; assay type: ADME, organism-based, Macaca fascicularis; conditions: in vivo
ES-2 = assay: Antiproliferative activity against human ES2 cells assessed as cell growth inhibition incubated for 72 hrs by Celltiter-Glo assay; assay type: functional, cell-based; conditions: ES-2, 72 h
[11] = Oral bioavailability in cynomolgus monkey at 15 mg/kg measured upto 1440 mins by LC/MS/MS analysis; assay type: ADME, organism-based, Macaca fascicularis; conditions: in vivo
[12] = Metabolic stability in human liver microsomes assessed as half life at 1 uM preincubated for 5 mins followed by NADPH addition by LC-MS/MS analysis; assay type: ADME, Microsome
[13] = Half life in cynomolgus monkey at 15 mg/kg, po measured upto 1440 mins by LC/MS/MS analysis; assay type: ADME, organism-based, Macaca fascicularis; conditions: in vivo
NCI-H441 = assay: Antiproliferative activity against human NCI-H441 cells assessed as cell growth inhibition incubated for 72 hrs by Celltiter-Glo assay; assay type: functional, cell-based; conditions: NCI-H441, 72 h
[14] = molecular target: Receptor tyrosine-protein kinase erbB-2 (Homo sapiens, UniProt P04626, R896C); assay: Inhibition of HER2 R896C mutant (unknown origin) incubated for 120 mins in presence of 33P-ATP by P81 ion exchange cellulose chromatography
Chain of Receptor tyrosine-protein kinase erbB-2 (Homo sapiens, UniProt P04626, R896C) (P04626 23-1255 R896C limits assumed): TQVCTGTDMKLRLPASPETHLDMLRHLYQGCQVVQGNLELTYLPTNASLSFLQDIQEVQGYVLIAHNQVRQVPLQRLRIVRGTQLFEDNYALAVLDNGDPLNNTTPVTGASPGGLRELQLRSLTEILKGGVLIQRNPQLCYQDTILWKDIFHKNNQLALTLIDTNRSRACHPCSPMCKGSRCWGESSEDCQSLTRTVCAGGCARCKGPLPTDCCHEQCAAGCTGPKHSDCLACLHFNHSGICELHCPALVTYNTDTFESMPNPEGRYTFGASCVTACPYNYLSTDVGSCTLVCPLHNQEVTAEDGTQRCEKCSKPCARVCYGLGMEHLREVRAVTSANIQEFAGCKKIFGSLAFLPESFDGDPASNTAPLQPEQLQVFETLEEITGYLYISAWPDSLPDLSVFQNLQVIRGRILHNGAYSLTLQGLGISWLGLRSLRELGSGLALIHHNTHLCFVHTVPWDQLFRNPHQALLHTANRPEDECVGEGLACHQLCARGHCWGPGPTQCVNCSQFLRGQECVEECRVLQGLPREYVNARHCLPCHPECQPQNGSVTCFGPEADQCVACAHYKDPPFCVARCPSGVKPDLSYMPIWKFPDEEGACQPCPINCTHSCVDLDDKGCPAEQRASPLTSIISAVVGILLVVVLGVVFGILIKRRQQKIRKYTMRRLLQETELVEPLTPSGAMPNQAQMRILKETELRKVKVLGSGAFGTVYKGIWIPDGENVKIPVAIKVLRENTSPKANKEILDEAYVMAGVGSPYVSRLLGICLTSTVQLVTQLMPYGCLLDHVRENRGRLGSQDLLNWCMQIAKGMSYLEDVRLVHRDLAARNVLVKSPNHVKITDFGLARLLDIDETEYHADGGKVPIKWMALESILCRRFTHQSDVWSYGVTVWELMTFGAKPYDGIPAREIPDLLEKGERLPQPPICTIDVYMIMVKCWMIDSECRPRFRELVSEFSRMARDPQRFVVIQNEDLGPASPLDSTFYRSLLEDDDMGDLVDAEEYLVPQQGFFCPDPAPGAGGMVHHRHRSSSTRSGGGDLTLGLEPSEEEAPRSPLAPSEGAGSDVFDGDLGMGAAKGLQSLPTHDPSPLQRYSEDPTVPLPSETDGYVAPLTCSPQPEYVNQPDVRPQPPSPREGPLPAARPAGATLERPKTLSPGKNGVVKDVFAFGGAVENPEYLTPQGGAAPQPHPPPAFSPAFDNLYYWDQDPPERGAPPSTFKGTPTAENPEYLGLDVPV

[15] = molecular target: Receptor tyrosine-protein kinase erbB-2 (Homo sapiens, UniProt P04626, D769H); assay: Inhibition of HER2 D769H mutant (unknown origin) incubated for 120 mins in presence of 33P-ATP by P81 ion exchange cellulose chromatography
Chain of Receptor tyrosine-protein kinase erbB-2 (Homo sapiens, UniProt P04626, D769H) (P04626 23-1255 D769H limits assumed): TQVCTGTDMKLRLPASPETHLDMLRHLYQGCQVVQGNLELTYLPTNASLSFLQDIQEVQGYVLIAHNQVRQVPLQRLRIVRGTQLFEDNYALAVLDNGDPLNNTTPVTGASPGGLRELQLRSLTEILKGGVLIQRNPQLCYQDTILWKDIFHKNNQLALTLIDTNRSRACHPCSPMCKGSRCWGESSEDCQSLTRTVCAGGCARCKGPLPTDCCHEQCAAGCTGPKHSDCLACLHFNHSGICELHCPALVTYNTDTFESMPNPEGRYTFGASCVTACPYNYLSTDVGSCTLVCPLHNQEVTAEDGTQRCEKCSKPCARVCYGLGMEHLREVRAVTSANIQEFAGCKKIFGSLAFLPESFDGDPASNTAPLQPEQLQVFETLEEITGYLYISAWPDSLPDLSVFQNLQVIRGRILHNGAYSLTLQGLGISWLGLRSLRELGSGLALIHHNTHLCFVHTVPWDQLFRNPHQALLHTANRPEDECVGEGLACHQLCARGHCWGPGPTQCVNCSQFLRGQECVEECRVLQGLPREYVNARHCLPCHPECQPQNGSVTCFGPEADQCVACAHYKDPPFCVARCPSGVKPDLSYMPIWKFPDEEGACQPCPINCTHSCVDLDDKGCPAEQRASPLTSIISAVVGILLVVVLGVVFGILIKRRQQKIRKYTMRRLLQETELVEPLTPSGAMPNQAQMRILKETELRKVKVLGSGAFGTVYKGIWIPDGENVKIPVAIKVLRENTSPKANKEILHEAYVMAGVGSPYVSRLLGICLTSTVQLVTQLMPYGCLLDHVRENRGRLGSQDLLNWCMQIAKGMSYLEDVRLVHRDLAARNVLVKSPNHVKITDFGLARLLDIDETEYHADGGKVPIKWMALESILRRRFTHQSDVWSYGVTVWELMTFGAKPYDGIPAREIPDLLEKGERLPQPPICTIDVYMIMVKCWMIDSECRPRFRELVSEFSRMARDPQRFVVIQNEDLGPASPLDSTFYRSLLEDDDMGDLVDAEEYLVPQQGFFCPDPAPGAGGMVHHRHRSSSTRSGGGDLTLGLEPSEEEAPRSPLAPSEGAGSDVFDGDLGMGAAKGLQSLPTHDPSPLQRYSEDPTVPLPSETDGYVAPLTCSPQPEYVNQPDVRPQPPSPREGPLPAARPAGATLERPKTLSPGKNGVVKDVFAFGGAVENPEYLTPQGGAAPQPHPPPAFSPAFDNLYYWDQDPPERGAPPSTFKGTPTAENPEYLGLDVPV

BaF3 [16] = assay: Antitumor activity against mouse BaF3 cells harbouring HER2 A775_G776insYVMA mutant xenografted in BALB/c nude mouse assessed as tumor growth inhibition by measuring relative tumor growth at 10 mg/kg, po qd for 13 days by caliper method relative to control; assay type: functional; conditions: time 13 day
BT-474 [17] = assay: Antiproliferative activity against human BT-474 cells assessed as inhibition of cell growth incubated for 72 hrs by Celltiter-Glo assay; assay type: functional, cell-based; conditions: BT-474, 72 h
[18] = Volume of distribution at steady state in cynomolgus monkey at 1 mg/kg, iv measured upto 1440 mins by LC/MS/MS analysis; assay type: ADME, organism-based, Macaca fascicularis; conditions: in vivo, read-out: Vdss
[19] = Toxicity in BALB/c nude mouse xenografted with mouse BaF3 cells harbouring HER2 A775_G776insYVMA mutant assessed as reduction in body weight at 10 to 40 mg/kg, po qd for 13 days; assay type: organism-based; conditions: in vivo, 312 h, dose 10-40 mg/kg, time 13 day
COLO-678 = assay: Antiproliferative activity against human COLO-678 cells assessed as cell growth inhibition incubated for 72 hrs by Celltiter-Glo assay; assay type: functional, cell-based; conditions: COLO-678, 72 h
[20] = Cmax in Sprague-Dawley rat at 10 mg/kg, po measured upto 1440 mins by LC/MS/MS analysis; assay type: ADME, organism-based; parameters: time < 1440 min, dose 10 mg/kg, route po; conditions: in vivo
MFE-280 = assay: Antiproliferative activity against human MFE-280 cells assessed as cell growth inhibition incubated for 72 hrs by Celltiter-Glo assay; assay type: functional, cell-based; conditions: MFE-280, 72 h
NCI-N87 [21] = assay: Antiproliferative activity against human NCI-N87 cells assessed as inhibition of cell growth incubated for 72 hrs by Celltiter-Glo assay; assay type: functional, cell-based; conditions: NCI-N87, 72 h
[22] = Half life in Sprague-Dawley rat at 10 mg/kg, po measured upto 1440 mins by LC/MS/MS analysis; assay type: ADME, organism-based; conditions: in vivo
[23] = Cmax in ICR mouse at 10 mg/kg, po measured upto 1440 mins by LC/MS/MS analysis; assay type: ADME, organism-based; parameters: dose 10 mg/kg, time < 1440 min, route po; conditions: in vivo
[24] = Half life in ICR mouse at 3 mg/kg, iv measured upto 1440 mins by LC/MS/MS analysis; assay type: ADME, organism-based; conditions: in vivo
[25] = AUC (0 to t) in Sprague-Dawley rat at 10 mg/kg, po measured upto 1440 mins by LC/MS/MS analysis; assay type: ADME, organism-based; parameters: dose 10 mg/kg, time < 1440 min, route po; conditions: in vivo
[26] = molecular target: Receptor tyrosine-protein kinase erbB-2 (Homo sapiens, UniProt P04626, D769Y); assay: Inhibition of HER2 D769Y mutant (unknown origin) incubated for 120 mins in presence of 33P-ATP by P81 ion exchange cellulose chromatography
Chain of Receptor tyrosine-protein kinase erbB-2 (Homo sapiens, UniProt P04626, D769Y) (P04626 23-1255 D769Y limits assumed): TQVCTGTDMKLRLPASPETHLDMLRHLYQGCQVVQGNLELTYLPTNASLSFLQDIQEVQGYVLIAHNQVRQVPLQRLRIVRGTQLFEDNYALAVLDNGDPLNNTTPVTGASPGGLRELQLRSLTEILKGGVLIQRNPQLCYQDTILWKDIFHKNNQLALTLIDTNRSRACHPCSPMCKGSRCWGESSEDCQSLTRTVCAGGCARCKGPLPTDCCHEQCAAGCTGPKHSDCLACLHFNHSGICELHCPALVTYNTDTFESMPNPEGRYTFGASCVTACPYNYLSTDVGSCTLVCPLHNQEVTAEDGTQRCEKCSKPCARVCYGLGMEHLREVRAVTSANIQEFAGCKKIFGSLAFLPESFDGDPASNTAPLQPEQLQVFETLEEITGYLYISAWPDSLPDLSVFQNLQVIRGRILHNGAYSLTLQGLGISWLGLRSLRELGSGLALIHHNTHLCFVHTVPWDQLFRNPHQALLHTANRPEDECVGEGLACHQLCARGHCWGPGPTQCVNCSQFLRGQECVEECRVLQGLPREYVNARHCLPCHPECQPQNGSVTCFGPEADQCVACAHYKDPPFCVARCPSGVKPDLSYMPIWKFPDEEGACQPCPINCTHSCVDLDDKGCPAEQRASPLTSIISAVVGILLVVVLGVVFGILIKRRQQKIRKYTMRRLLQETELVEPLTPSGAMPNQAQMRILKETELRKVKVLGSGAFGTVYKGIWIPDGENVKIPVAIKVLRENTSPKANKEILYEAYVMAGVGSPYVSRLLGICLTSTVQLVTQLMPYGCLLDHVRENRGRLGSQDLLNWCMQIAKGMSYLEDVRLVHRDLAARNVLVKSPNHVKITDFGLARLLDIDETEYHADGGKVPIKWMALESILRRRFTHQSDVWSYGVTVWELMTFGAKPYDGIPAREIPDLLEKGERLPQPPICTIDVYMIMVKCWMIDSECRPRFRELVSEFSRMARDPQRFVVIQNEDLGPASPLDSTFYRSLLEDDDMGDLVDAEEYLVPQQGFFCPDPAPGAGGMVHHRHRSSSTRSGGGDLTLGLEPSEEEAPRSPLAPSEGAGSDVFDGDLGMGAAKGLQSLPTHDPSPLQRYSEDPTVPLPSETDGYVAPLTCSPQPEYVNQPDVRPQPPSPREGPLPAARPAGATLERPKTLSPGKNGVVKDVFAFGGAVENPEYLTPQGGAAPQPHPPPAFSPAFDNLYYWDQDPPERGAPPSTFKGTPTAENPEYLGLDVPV

BaF3 [27] = assay: Antitumor activity against mouse BaF3 cells harbouring HER2 A775_G776insYVMA xenografted in BALB/c nude mouse assessed as tumor growth inhibition at 10 mg/kg/day, po qd measured for 13 days relative to control; assay type: functional; conditions: BaF3, 312 h, time 13 day, read-out: TGI
[28] = Clearance in Sprague-Dawley rat at 3 mg/kg, iv measured upto 1440 mins by LC/MS/MS analysis; assay type: ADME, organism-based; conditions: in vivo
[29] = Clearance in ICR mouse at 3 mg/kg, iv measured upto 1440 mins by LC/MS/MS analysis; assay type: ADME, organism-based; conditions: in vivo
[30] = AUC (0 to t) in cynomolgus monkey at 15 mg/kg, po measured upto 1440 mins by LC/MS/MS analysis; assay type: ADME, organism-based, Macaca fascicularis; parameters: time < 1440 min, dose 15 mg/kg, route po; conditions: in vivo

With `CCOc1cc2ncnc(Nc3ccc(Oc4cc5nncn5cn4)c(C)c3)c2cc1NC(=O)/C(F)=C/[C@H]1CCCN1C` the Activity [1] was “Non-Toxic”, the T/C (BaF3 [2]) was 2% and the IC50 [3] was 3.51 nM. For the same compound, the half-life [4] was 3.6 h, the IC50 (BaF3 [5]) was 6.3 nM and the inhibition in vivo at 10 mg/kg/day (NCI-N87 [6]) was 113%. The Vd [7] was 3.55 L/kg, the T/C (NCI-N87 [8]) was 2.03% and the inhibition in vivo at 20 mg/kg/day (BT-474 [9]) was 123%. It also gave an IC50 (MDA-MB-468) of 2980 nM, a Tmax [10] of 7.5 h and an IC50 (ES-2) of 2720 nM. The bioavailability [11] was 43.4%, the half-life at 1 µM [12] was 9.24 h and the half-life [13] was 5.63 h. It also gave an IC50 (NCI-H441) of 4260 nM, an IC50 [14] of 0.56 nM and an IC50 [15] of 0.42 nM. The T/C (BaF3 [16]) was 16.66%, the IC50 (BT-474 [17]) was 2.01 nM and the Vd [18] was 3.71 L/kg. The Activity [19] was “Non-Toxic”, the IC50 (COLO-678) was 6070 nM and the Cmax [20] was 760 ng/mL. For the same compound, the IC50 (MFE-280) was 3970 nM, the IC50 (NCI-N87 [21]) was 1.09 nM and the half-life [22] was 4.38 h. For the same compound, the Cmax [23] was 1900 ng/mL, the half-life [24] was 3.76 h and the AUC(0-t) at 24 h [25] was 5470 ng·h/mL. It also gave an IC50 [26] of 0.43 nM, an inhibition in vivo at 10 mg/kg/day (BaF3 [27]) of 95% and a clearance [28] of 13 mL/min/kg. The clearance [29] was 11.7 mL/min/kg and the AUC(0-t) at 24 h [30] was 10400 ng·h/mL.

— ChEMBL document CHEMBL5154811, “Discovery of SPH5030, a Selective, Potent, and Irreversible Tyrosine Kinase Inhibitor for HER2-Amplified and HER2-Mutant Cancer Treatment” (J Med Chem, 2022)
